From the NIST ThermoML archive (doi:10.1021/je900437b)

Tests used:
[1] = 101 kPa, Liquid; for speed of sound: Sing-around technique in a fixed-path interferometer; for mass density: Vibrating tube method
[2] = xn = mol fraction of the nth substance listed; conditions: 101 kPa, Liquid, x1 = 1; for speed of sound: Sing-around technique in a fixed-path interferometer; for mass density: Vibrating tube method

CC(C)(N)CO [2-amino-2-methylpropan-1-ol]
[1]
Conditions | mass density [kg/m3] | speed of sound [m/s]
293.15 K | 936.751 | 1501.4
298.15 K | 932.596 | 1483.4
303.15 K | 928.395 | 1461.2
308.15 K | 924.174 | 1442.4
313.15 K | 919.945 | 1423.8
318.15 K | 915.702 | 1405.3
323.15 K | 911.431 | 1386.9

NCCO [2-aminoethan-1-ol]
[1]
Conditions | mass density [kg/m3] | speed of sound [m/s]
293.15 K | 1015.98 | 1735.5
298.15 K | 1012.02 | 1719.2
303.15 K | 1008 | 1703.1
308.15 K | 1004.02 | 1686.8
313.15 K | 1000.04 | 1670.5
318.15 K | 996.029 | 1654.2
323.15 K | 992.014 | 1637.9

NCCO [2-aminoethan-1-ol] + CC(C)(N)CO
[2]
Conditions | mass density [kg/m3] | speed of sound [m/s]
293.15 K | 1015.98 | 1735.5
298.15 K | 1012.02 | 1719.2
303.15 K | 1008 | 1703.1
308.15 K | 1004.02 | 1686.8
313.15 K | 1000.04 | 1670.5
318.15 K | 996.029 | 1654.2
323.15 K | 992.014 | 1637.9

NCCO [2-aminoethan-1-ol] + CN(CCO)CCO
[2]
Conditions | mass density [kg/m3] | speed of sound [m/s]
293.15 K | 1015.98 | 1735.5
298.15 K | 1012.02 | 1719.2
303.15 K | 1008 | 1703.1
308.15 K | 1004.02 | 1686.8
313.15 K | 1000.04 | 1670.5
318.15 K | 996.029 | 1654.2
323.15 K | 992.014 | 1637.9

NCCO [2-aminoethan-1-ol] + OCCN(CCO)CCO
[2]
Conditions | mass density [kg/m3] | speed of sound [m/s]
298.15 K | 1012.02 | 1719.2
303.15 K | 1008 | 1703.1
308.15 K | 1004.02 | 1686.8
313.15 K | 1000.04 | 1670.5
318.15 K | 996.029 | 1654.2
323.15 K | 992.014 | 1637.9

CN(CCO)CCO [N-methyldiethanolamine]
[1]
Conditions | mass density [kg/m3] | speed of sound [m/s]
293.15 K | 1042.2 | 1585.5
298.15 K | 1038.29 | 1570.1
303.15 K | 1034.36 | 1554.8
308.15 K | 1030.43 | 1539.5
313.15 K | 1026.48 | 1524.2
318.15 K | 1022.53 | 1508.8
323.15 K | 1018.58 | 1493.4

OCCN(CCO)CCO [triethanolamine]
[1]
Conditions | mass density [kg/m3] | speed of sound [m/s]
298.15 K | 1120.82 | 1610.5
303.15 K | 1118.06 | 1600.5
308.15 K | 1115.26 | 1595.5
313.15 K | 1112.4 | 1587
318.15 K | 1109.6 | 1578.8
323.15 K | 1106.78 | 1570.6
